# How the values were obtained:
# [1] = target: T1, hNLRP3 (Homo sapiens, UniProt Q96P20); assay: Measurement of IL-1β production in PMA-differentiated THP-1 cells (hNLRP3 agonist; ELISA, alternative and hTRF procedures); assay type: cell-based
# T1 construct: THP-1 cells were purchased from the American Type Culture Collection; host or cells: THP-1 cells, PMA-differentiated
# Description: Measurement of IL-1β production in PMA-differentiated THP-1 cells THP-1 cells were purchased from the American Type Culture Collection and sub-cultured according to instructions from the supplier. Prior to experiments, cells were cultured in RPMI 1640 containing 10% heat inactivated FBS, penicillin (100 units/ml) and streptomycin (100 μg/ml), and maintained in log phase prior to experimental setup. Prior to the experiment THP-1 were treated with PMA (Phorbol 12-myristate 13-acetate) ([…]) for 24 hours. The day of the experiment the media was removed and attaching cells were treated with trypsin for 2 minutes, cells were then collected, washed with PBS (phosphate buffer saline), spin down, resuspended in 2% heat inactivated FBS with RPMI at a concentration of 1×10^6 cells/ml, and 100 μl was plated in a 96 well plate. Compounds were dissolved in dimethyl sulfoxide (DMSO) and added to the culture medium to achieve desired concentration (e.g. 100, 30, 10, 3, 1, 0.3 or 0.1 μM). Cells were incubated with compounds for 4 hours. Cell free supernatant was collected and the production of […] was evaluated by ELISA. A vehicle only control was run concurrently with each experiment. Final DMSO concentration was 1%.
# Measurement of IL-1β Production in PMA-Differentiated THP-1 Cells (Alternative Procedure)
# THP-1 cells were purchased from the American Type Culture Collection and sub-cultured according to instructions from the supplier. Prior to experiments, cells were cultured in RPMI 1640 containing 10% heat inactivated FBS, penicillin (100 units/ml), streptomycin (100 μg/ml), HEPES (10 mM) and sodium pyruvate (1 mM) and maintained in log phase prior to experimental setup. Prior to the experiment, THP-1 cells were treated with PMA (Phorbol 12-myristate 13-acetate) (20 μg/ml) overnight. The day of the experiment, the media was removed and attached cells were treated with trypsin for 2 minutes, cells were then collected, washed with PBS (phosphate buffer saline), pelleted by centrifugation and resuspended in 2% heat inactivated FBS with RPMI at a concentration of 50,000 cells/well in a 384 well plate. Cell free supernatant was collected and the production of IL-1β was evaluated by ELISA. Compounds were dissolved in dimethyl sulfoxide (DMSO) and added to the culture medium to achieve desired concentration (e.g. 100, 30, 10, 3, 1, 0.3 or 0.1 μM). Cells were incubated with compounds for 2 hours. A vehicle only control was run concurrently with each experiment. Final DMSO concentration was 1%.
# Measurement of IL-1β Production—hTRF Protocol (Second Alternative Procedure)
# Serial dilutions of compounds in DMSO were added to low volume 384 well plates at 100 nl/well using an ECHO 550 acoustic dispenser (Labcyte) to achieve final starting concentration of 10 μM in assay.
# THP-1 cells in RPMI (Gibco, 11875) media with 10% FBS at a density of 1×10^6 cell/ml in a T175 flask were treated with a final concentration of phorbol 12-myristate 13-acetate (PMA) (Sigma, P1585) of 50 ng/ml overnight at 37° C. at 5% CO2 for differentiation. Cells were harvested the next day after rinsing well with dPBS using 0.5% trypsin. A cell solution was prepared of 1×10^6 cells/ml for 50,000 cells in 50 μl/well in RPMI media with 2% FBS. Cells were plated using a multichannel pipette onto the compound dilutions in Greiner, 384 well, black clear bottom tissue culture treated plates (781090). The plates were incubated in 37° C. incubator at 5% CO2 for 2 hours.
# After the 2 hour incubation, the cell plates were spun in the centrifuge for 5 minutes at 1200 rpm. Using the Felix (CyBio), 8 μl of the supernatant was transferred to 384 well, low volume, white proxy plates. (Perkin Elmer, 6008230). A human IL1beta hTRF kit was used to analyze the supernatant (CISBIO, 62HIL1BPEG). The kit instructions were followed for preparing the IL1Beta standard curve and then the antibodies from the kit were diluted 1:40 rather than 1:20 as kit instructed.
# [2] = target: T2, TLR7 (Homo sapiens, UniProt Q9NYK1); assay: In vitro human TLR7 binding reporter assay (HEK-Blue, NF-kB/AP1-inducible SEAP); assay type: cell-based; settings: activity range symbols
# T2 construct: host or cells: HEK-Blue cells (human HEK) co-expressing TLR7 and an NF-kB/AP1-inducible SEAP reporter
# T2 sequence (Q9NYK1 27-1049): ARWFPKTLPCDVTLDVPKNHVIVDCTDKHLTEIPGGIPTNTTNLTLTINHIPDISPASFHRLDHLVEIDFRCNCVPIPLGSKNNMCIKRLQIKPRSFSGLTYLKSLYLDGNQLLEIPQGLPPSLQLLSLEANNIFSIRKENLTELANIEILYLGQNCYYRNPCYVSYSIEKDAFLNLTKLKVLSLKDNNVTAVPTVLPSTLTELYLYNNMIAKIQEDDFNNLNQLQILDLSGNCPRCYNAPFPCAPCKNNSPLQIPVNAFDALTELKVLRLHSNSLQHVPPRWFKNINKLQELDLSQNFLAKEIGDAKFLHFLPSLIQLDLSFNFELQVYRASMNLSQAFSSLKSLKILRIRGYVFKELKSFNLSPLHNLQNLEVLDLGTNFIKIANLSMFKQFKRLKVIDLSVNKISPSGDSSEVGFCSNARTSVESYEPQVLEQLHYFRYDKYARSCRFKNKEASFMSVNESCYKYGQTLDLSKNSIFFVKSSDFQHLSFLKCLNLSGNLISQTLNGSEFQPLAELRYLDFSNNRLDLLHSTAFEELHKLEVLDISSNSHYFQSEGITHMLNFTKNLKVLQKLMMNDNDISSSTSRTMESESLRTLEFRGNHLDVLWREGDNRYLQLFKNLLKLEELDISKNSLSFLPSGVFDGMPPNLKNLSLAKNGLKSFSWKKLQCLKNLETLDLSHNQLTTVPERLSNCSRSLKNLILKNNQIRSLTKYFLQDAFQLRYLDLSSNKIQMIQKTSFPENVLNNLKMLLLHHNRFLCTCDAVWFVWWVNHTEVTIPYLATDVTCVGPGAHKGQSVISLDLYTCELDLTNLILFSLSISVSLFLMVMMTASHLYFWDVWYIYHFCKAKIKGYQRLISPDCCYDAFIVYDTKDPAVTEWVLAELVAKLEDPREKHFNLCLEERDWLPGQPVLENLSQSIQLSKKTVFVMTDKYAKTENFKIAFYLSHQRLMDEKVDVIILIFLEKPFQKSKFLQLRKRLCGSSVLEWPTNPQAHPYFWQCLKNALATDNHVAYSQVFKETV
# Description: In Vitro Human TLR7 and TLR8 Binding Reporter Assays
# Logarithmically-growing human HEK-Blue cells co-expressing a TLR7 or TLR8 gene and a NF-kB/AP1-inducible SEAP (secreted embryonic alkaline phosphatase; Invivogen, San Diego, CA) reporter gene are added to individual wells of a 384-well plate (15,000 cells per 20 μL per well) and maintained for 24 h at 37° C., 5% CO2. Test compounds or DMSO are distributed to separate wells the next day using acoustic liquid handling technology (100 nL per well) and cells are subsequently incubated for 18 h at 37° C., 5% CO2. Cellular SEAP production is measured using an Envision plate reader instrument thirty minutes after adding freshly-made Quanti-Blue reagent (prepared by following manufacturer instructions; Invivogen, San Diego, CA) to the HEK-Blue TLR Nf-kB-SEAP cell reactions. All EC50 values (half-maximal effective concentration) are determined using proprietary data analysis software.
# T1 sequence (Q96P20 whole entry): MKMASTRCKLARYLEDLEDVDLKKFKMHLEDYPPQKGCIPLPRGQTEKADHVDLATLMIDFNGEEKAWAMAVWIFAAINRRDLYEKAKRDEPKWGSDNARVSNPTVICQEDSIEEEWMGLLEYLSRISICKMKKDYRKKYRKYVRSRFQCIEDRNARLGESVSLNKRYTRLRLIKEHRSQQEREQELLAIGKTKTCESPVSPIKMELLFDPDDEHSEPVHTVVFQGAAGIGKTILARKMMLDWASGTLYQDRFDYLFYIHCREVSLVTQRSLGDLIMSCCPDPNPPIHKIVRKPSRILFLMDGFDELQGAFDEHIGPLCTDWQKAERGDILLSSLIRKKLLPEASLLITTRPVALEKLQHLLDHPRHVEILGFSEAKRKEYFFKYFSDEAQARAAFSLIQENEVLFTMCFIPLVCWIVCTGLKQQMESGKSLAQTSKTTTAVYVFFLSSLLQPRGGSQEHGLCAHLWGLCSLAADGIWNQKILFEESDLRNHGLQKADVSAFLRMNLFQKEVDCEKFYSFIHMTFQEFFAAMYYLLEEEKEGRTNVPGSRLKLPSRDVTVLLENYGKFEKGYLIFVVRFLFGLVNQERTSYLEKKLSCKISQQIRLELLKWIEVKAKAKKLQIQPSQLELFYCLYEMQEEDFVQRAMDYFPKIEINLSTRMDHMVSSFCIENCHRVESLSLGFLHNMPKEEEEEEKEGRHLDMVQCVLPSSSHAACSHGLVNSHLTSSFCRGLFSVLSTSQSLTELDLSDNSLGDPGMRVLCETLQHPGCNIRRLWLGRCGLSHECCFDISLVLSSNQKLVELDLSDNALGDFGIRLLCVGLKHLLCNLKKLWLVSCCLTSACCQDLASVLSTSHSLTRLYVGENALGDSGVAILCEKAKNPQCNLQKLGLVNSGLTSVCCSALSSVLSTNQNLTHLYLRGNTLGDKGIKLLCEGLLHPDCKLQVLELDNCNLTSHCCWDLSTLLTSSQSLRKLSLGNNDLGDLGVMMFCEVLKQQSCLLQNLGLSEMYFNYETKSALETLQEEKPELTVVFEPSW
EC50 [1],EC50 [2],SMILES
0.69 µM,,Nc1nc2cc(-c3cc[nH]n3)ccc2c2[nH]c(CNC(=O)C3CC3)nc12 [Compound 105]
0.64 µM,,CC(C)C(=O)NCc1nc2c(N)nc3cc(-c4cc[nH]n4)ccc3c2[nH]1 [Compound 107]
0.56 µM,,"CC(=O)NCc1nc2c(N)nc3cc(-c4cc[nH]n4)ccc3c2[nH]1 [Compound 113, N-((4-Amino-7-(1H-pyrazol-3-yl)-1H-imidazo[4,5-c]quinolin-2-yl)methyl)acetamide]"
1.16 µM,,CS(=O)(=O)NCc1nc2c(N)nc3cc(-c4cc[nH]n4)ccc3c2[nH]1 [Compound 116]
2.1 µM,,CCN(Cc1nc2c(N)nc3cc(-c4cc[nH]n4)ccc3c2[nH]1)C(=O)c1ccccc1 [Compound 126]
3.5 µM,,CCN(Cc1nc2c(N)nc3cc(-c4cc[nH]n4)ccc3c2[nH]1)C(=O)CO [Compound 133]
4.6 µM,,CCN(Cc1nc2c(N)nc3cc(-n4nccn4)ccc3c2[nH]1)C(=O)OC(C)(C)C [Compound 135]
5.4 µM,,Nc1nc2cc(-c3cc[nH]n3)ccc2c2[nH]c(CN3CC(c4ccccc4)CC3=O)nc12 (stereo not drawn) [Compound 137]
5.9 µM,> 100 µM,"CCN(C(C)=O)C(C)c1nc2c(N)nc3cc(Br)ccc3c2[nH]1 (stereo not drawn) [Compound 182, N-[1-(4-amino-7-bromo-1H-imidazo[4,5-c]quinolin-2-yl)ethyl]-N-ethylacetamide]"
4.48 µM,,"COc1ccc(-c2ccc3c(c2)nc(N)c2nc(CN4CCCC4=O)[nH]c23)cc1 [Compound 292, 1-[[4-amino-7-(4-methoxyphenyl)-1H-imidazo[4,5-c]quinolin-2-yl]methyl]pyrrolidin-2-one]"
36.4 µM,,"COc1ccc(-c2ccc3c(c2)nc(N)c2nc(CN4CCCC4=O)[nH]c23)cn1 [Compound 304, 1-[[4-amino-7-(6-methoxypyridin-3-yl)-1H-imidazo[4,5-c]quinolin-2-yl]methyl]pyrrolidin-2-one]"
12.3 µM,,"Nc1nc2cc(-c3cccnc3F)ccc2c2[nH]c(CN3CCCC3=O)nc12 [Compound 307, 1-[[4-amino-7-(2-fluoropyridin-3-yl)-1H-imidazo[4,5-c]quinolin-2-yl]methyl]pyrrolidin-2-one]"
1.06 µM,,"Nc1nc2cc(-c3ccsc3)ccc2c2[nH]c(CN3CCCC3=O)nc12 [Compound 308, 1-[(4-amino-7-thiophen-3-yl-1H-imidazo[4,5-c]quinolin-2-yl)methyl]pyrrolidin-2-one]"
64 µM,,Nc1nc2ccccc2c2c1nc(CN1CCCC1=O)n2CCCC(=O)N1CCSCC1 [Compound 345]
10 µM,,CN1CCN(Cc2nc3c(N)nc4cc(-c5cc[nH]n5)ccc4c3[nH]2)C(=O)C1 [Compound 350]
2.17 µM,,Nc1nc2cc(-c3cc[nH]n3)ccc2c2[nH]c(CN3CCOCC3=O)nc12 [Compound 351]
2.23 µM,,Nc1nc2cc(-c3cc[nH]n3)ccc2c2[nH]c(CN3CCCCC3=O)nc12 [Compound 352]
0.24 µM,,CC(C)NCc1nc2c(N)nc3cc(-c4cc[nH]n4)ccc3c2[nH]1 [Compound 421]
0.79 µM,> 100 µM,CCN(Cc1nc2c(N)nc3cc(-c4cccs4)ccc3c2[nH]1)C(=O)OC(C)(C)C [Compound 424]
0.44 µM,> 100 µM,CCN(Cc1nc2c(N)nc3cc(-c4cccs4)ccc3c2[nH]1)C(C)=O [Compound 425]
4.3 µM,> 100 µM,Nc1nc2cc(-c3cccnc3)ccc2c2[nH]c(CN3CCCCC3=O)nc12 [Compound 426]
5.1 µM,> 100 µM,Nc1nc2cc(Br)ccc2c2[nH]c(CN3CCCCC3=O)nc12 [Compound 428]
5.8 µM,> 100 µM,Nc1nc2cc(-n3cccn3)ccc2c2[nH]c(CN3CCOC3=O)nc12 [Compound 429]
~10 µM,,CN1CCN(Cc2nc3c(N)nc4cc(-c5cc[nH]n5)ccc4c3[nH]2)C(=O)C1 [Compound 432]
11.5 µM,,CC(C)(C)OC(=O)N1CCN(Cc2nc3c(N)nc4cc(-c5cccnc5)ccc4c3[nH]2)C(=O)C1 [Compound 433]
19.3 µM,> 100 µM,CCCn1c(CN(CC)C(C)=O)nc2c(N)nc3cc(Br)ccc3c21 [Compound 435]
